# Where two headings read alike, the source gives them in different places.
# Tests used:
# L-929 cell line = assay: Neutral red uptake assay, L-929 cell line (primary screening); assay type: cell-based, mouse; settings: normal cell line L-929
# Experimental: (§1) L-929 (mouse C3H/An connective tissue), Caco-2 (human colon adenocarcinoma), A172 (human glioblastoma), AGS (human gastric adenocarcinoma), HepaRG (human hepatoma cell), and HeLa (human cervix epithelioid carcinoma) cell lines were obtained from the European Collection of Authenticated Cell Cultures (ECACC) and provided by Sigma Aldrich/Merck (Munich, Germany). All cell lines were cultured in complete mediums prepared according to the ECACC recommendations and incubated in a humidified atmosphere with 5% CO2 at 37 °C. Neutral red uptake assay was performed according to the protocol. 24 h before treatment cells were seeded in 96-well plates in 1 × 10^5 cell/mL of complete medium. After incubation and attachment of cells, the medium was discarded, and test substances dissolved in the fresh medium were added to wells. Samples were tested after 24, 48, and 72 h incubation. A neutral red working solution (40 µg/mL) was prepared and incubated overnight. Immediately before use, it was centrifuged to remove any dye crystals. The medium from wells was aspirated, and 100 µL of neutral red was added to plates and incubated for at least 2 h in 37 °C and 5% CO2 in a humidified atmosphere. To inspect the absorption of neutral red to the lysosomes, microscope visualizations were performed. After incubation, cells were washed with PBS, and destain solution containing ethanol, deionized water, and glacial acetic acid (50:49:1) was added. Plates were shaken rapidly on a horizontal shaker at 37 °C. Absorption was measured using a Thermo Scientific™ (Waltham, MA, USA) Multiskan™ GO microplate spectrophotometer at 540 nm. The negative control was a medium with 1% DMSO, and the positive control was 1 µM staurosporine. Viability was calculated according to the following formula:(1) % Viability=ODtest substance−ODblind/ODnegative control−ODblind×100 Neutral red uptake assay was performed in quadruple (n = 4). Results were calculated to mean ± standard deviation (SD) using Microsoft Office Excel 2007. The viability in negative control was compared to 100%. Statistical analyses were performed using the GraphPad Prism 8.3 for Windows (GraphPad Software, La Jolla, CA, USA, www.graphpad.com). For IC50 results, non-linear regression analyses were performed, and a sigmoidal dose-response curve (variable slope) was fitted. Differences between groups and control were tested using an ANOVA test followed by Dunnett’s post hoc analysis. The significance was set at p ≤ 0.05.
# [1] = tested on: Enterococcus faecalis ATCC 29212; assay: Antimicrobial microdilution / modified Richards method; assay type: cell-based; settings: range tested 1024 to 1 ug/mL
# HepaRG = assay: Neutral red uptake assay, HepaRG; assay type: cell-based; settings: Homo sapiens, 72 h exposure
# Experimental: (§2) L-929 (mouse C3H/An connective tissue), Caco-2 (human colon adenocarcinoma), A172 (human glioblastoma), AGS (human gastric adenocarcinoma), HepaRG (human hepatoma cell), and HeLa (human cervix epithelioid carcinoma) cell lines were obtained from the European Collection of Authenticated Cell Cultures (ECACC) and provided by Sigma Aldrich/Merck (Munich, Germany). All cell lines were cultured in complete mediums prepared according to the ECACC recommendations and incubated in a humidified atmosphere with 5% CO2 at 37 °C. Neutral red uptake assay was performed according to the protocol. 24 h before treatment cells were seeded in 96-well plates in 1 × 10^5 cell/mL of complete medium. After incubation and attachment of cells, the medium was discarded, and test substances dissolved in the fresh medium were added to wells. Samples were tested after 24, 48, and 72 h incubation. A neutral red working solution (40 µg/mL) was prepared and incubated overnight. […] Absorption was measured using a Thermo Scientific™ (Waltham, MA, USA) Multiskan™ GO microplate spectrophotometer at 540 nm. […] Viability was calculated according to the following formula:(1) % Viability=ODtest substance−ODblind/ODnegative control−ODblind×100 Neutral red uptake assay was performed in quadruple (n = 4). Results were calculated to mean ± standard deviation (SD) using Microsoft Office Excel 2007. […]
# [2] = tested on: other cell lines (Caco-2, A172, HeLa, AGS); assay: Neutral red uptake assay, other neoplastic cell lines; assay type: cell-based, human; settings: cell lines other than HepaRG; viability decreased at 100–1000 µM; 72 h exposure
# Experimental: as §2
# [3] = Neutral red uptake assay, L-929 cell line (primary screening); assay type: cell-based, mouse; settings: mouse, L-929 cells, p < 0,05
# Experimental: as §1
# AGS cell line [4] = assay: Microscopic observation of cell and nucleus morphology, Hoechst 33342; assay type: cell-based, human; settings: 50 µM, 72 h
# Experimental: Morphological changes and DNA fragmentation were examined with an Olympus IX53 inverted fluorescence microscope after staining with Hoechst 33342 according to the manufacturer’s recommendations Thermo Scientific (Waltham, MA, USA). Briefly, cells were seeded in 12-well plates with a density of 1 × 10^5 cell/mL. After overnight incubation, the test substance was added in a half-maximal inhibitory (IC50) concentration and incubated for 24, 48, and 72 h. Before microscopic observation, both adherent and floating cells were collected, centrifuged, resuspended in PBS containing 1 µg/mL Hoechst 33342 dye. After 10 min incubation in the dark, the morphology of cells and DNA were visualized using a contrast phase and a UV filter.
# A172 = assay: Neutral red uptake assay, A172; assay type: cell-based; settings: Homo sapiens, A 172, 72 h exposure
# Experimental: as §2
# AGS cell line [5] = assay: Flow cytometry viability, FDA/PI double staining; assay type: cell-based, human
# Experimental: The flow cytometry analysis was performed to determine cell viability after treatment with a compound showing high proliferation inhibition in neutral red uptake assay. The test is based on FDA’s ability to pass through an intact cell membrane, where it can be hydrolyzed by cytoplasmic esterases to fluorescein, a bright green fluorophore. The protocol was based on a double-staining procedure with FDA and PI [75]. For stock solutions, FDA was dissolved in DMSO and PI in H2O to 1 mM concentrations. Cells were seeded in a 6-well plate with a density of 1 × 10^5 cell/well and maintained at 37 °C under 5% CO2 in a humidified atmosphere. After overnight incubation, cells were treated with a compound diluted to the following concentrations: 100, 80, 40, 10, and 1 µM. Flow cytometry analyses were performed after 24, 48, and 72 h incubation. For the analysis, both floating and adherent cells were collected, centrifuged at 1600 rpm, and washed with PBS. Cells were stained with FDA with a final concentration of 1 µM in PBS, and kept in the dark for 15 min. After incubation, cells were centrifuged, resuspended in ice-cold PBS, and kept on ice until analysis. Directly before testing, samples were stained with a 1 µM PI solution for 2 min. The acquisition was performed with a CyFlow® space flow cytometer, and data analyses were performed using the FloMax software (Partec, Münster, Germany). The percentage of viable cells was calculated based on FDA absorption according to the following formula:(2) % ViabilityFDA=% live cells under experimental conditions/% live cells from negative control×100
# AGS cell line [6] = assay: Annexin V/PI staining, flow cytometry; assay type: cell-based, human; settings: 24 h incubation
# Experimental: A quantitative analysis of apoptosis was performed by flow cytometry with Alexa Fluor 488 annexin V and PI staining (Thermo Scientific Waltham, MA, USA). Briefly, 3 × 10^5 cells were seeded in 6-well plates. After overnight incubation, the tested compound was added to wells in 5 × IC50 concentration (250 µM). Cells were incubated and tested after 6, 12, 18, and 24 h, according to the manufacturer’s protocol. After incubation, cells were harvested, washed with PBS, and resuspended in 1× binding buffer to a final concentration of 1–5 × 10^6 cell/mL. Then 5 µL of Alexa Fluor 488-annexin V was added to 100 µL of cell suspension and incubated in the dark for 15 min. After incubation, the dye was removed, and cells were suspended in 1 mL of binding buffer. Directly before analysis, cells were incubated with 1 µL PI for 2 min and analyzed by flow cytometry (using CyFlow® Space flow cytometer and FloMax software).
# HeLa = assay: Neutral red uptake assay, HeLa; assay type: cell-based; settings: Homo sapiens, 72 h exposure
# Experimental: as §2
# AGS cell line [7] = assay: Comet assay (alkaline single-cell gel electrophoresis), DNA damage; assay type: cell-based, human; settings: 50 µM
# Experimental: To evaluate DNA damage induced by incubation with 3, alkaline single-cell gel electrophoresis (comet assay) was performed. Cells were seeded in 12-well plates in a density of 1 × 10^5 cell/well. After overnight incubation, the tested compound in IC50 concentration (50 µM) was added. After incubation, cells were harvested, centrifuged, and resuspended in PBS. The cell suspension was mixed with 1% low melting point agarose and attached to the slide covered with 1% normal melting point agarose. Subsequently, slides were incubated in a buffer (pH 10.0) containing 2.5 M NaCl, 10 mM Tris-HCl buffer, 100 mM EDTA, and 1% Triton X-100 for 1 h. Then samples were transferred to alkaline electrophoresis buffer containing 0.3 M […] and 1mM EDTA for a 20 min incubation followed by electrophoresis performed at 25 V and 300 mA for 20 min. After electrophoresis, samples were incubated with a neutral pH buffer (0.4 M Tris-HCl, pH 7.5) for 10 min and washed with deionized water. After air-drying, samples were stained with Hoechst 33342 and visualized with a fluorescence microscope using a UV filter. The damages were visually scored from 100 randomly selected cells. […] Based on results, the damage index (DI) was calculated according to the following formula:(3) DI=0×n0+1×n1+2×n2+3×n3+4×n4, where n stands for the amount of each class.
# AGS = assay: Neutral red uptake assay, AGS; assay type: cell-based; settings: Homo sapiens, 72 h exposure
# Experimental: as §2
# [8] = Enterococcus faecalis ATCC 29212
# [9] = Enterococcus faecalis, ATCC29212, Enterococcus faecalis ATCC 29212, read-out: MBC
# [10] = Enterococcus faecalis, ATCC29212, Enterococcus faecalis ATCC 29212, read-out: MIC
structure (smiles),measurement,setting,value
"CCOc1ccc(NCc2c(C)nc(-c3ccccc3)nc2Nc2ccc(F)cc2)cc1 [Compound 2, 5-[(4-ethoxyanilino)methyl]-N-(4-fluorophenyl)-6-methyl-2-phenylpyrimidin-4-amine]",effect on L-929 survival,L-929 cell line,did not significantly affect L-929 survival
same,MBC,[1]; [8],1024 µg/mL
same,MIC,[1]; [8],512 µg/mL
same,MBC,[1]; [9],512 µg/mL
same,MIC,[1]; [10],1020 µg/mL
same,melting point,,163 to 164 °C
same,IC50,HepaRG,404 µM
same,IC50,[2],IC50 was not reached
"CCOc1ccc(N=Cc2c(C)nc(-c3ccccc3)nc2Nc2ccc(F)cc2)cc1 [Compound 3, 5-[(4-ethoxyphenyl)imino]methyl-N-(4-fluorophenyl)-6-methyl-2-phenylpyrimidin-4-amine]",viability at 250 µM,"[3]; L-929, 250 µM",115%
same,viability at 500 µM,"[3]; L-929, 500 µM",111%
same,viability at 1000 µM,"[3]; L-929, 1000 µM",115%
same,MBC,[1]; [8],32 µg/mL
same,MIC,[1]; [8],16 µg/mL
same,MBC,[1]; [9],16 µg/mL
same,MIC,[1]; [10],32 µg/mL
same,cell and nucleus morphology,AGS cell line [4],broke apart into apoptotic bodies
same,IC50,HepaRG,313 µM
same,IC50,A172,526 µM
same,cells in Q3 (unstained),AGS cell line [5]; 100 µM,43.72%
same,"cells in Q4 (PI stained, dead)",AGS cell line [5]; 100 µM,35.76%
same,viability at 1 µM,"AGS cell line [5]; Homo sapiens, 1 µM, read-out: cells in Q1 (FDA stained, viable)",81.5%
same,viability at 10 µM,"AGS cell line [5]; Homo sapiens, 10 µM, read-out: cells in Q1 (FDA stained, viable)",66.4%
same,viability at 40 µM,"AGS cell line [5]; Homo sapiens, 40 µM, read-out: cells in Q1 (FDA stained, viable)",62.4%
same,viability at 80 µM,"AGS cell line [5]; Homo sapiens, 80 µM, read-out: cells in Q1 (FDA stained, viable)",41.8%
same,viability at 100 µM,"AGS cell line [5]; Homo sapiens, 100 µM, read-out: cells in Q1 (FDA stained, viable)",20.2%
same,IC50,"AGS cell line [5]; Homo sapiens, referred to control with 1% DMSO",53 µM
same,necrotic cells (stained with PI only),"AGS cell line [6]; 250 µM, control 0.71%",2.22%
same,late apoptotic cells (double-stained),"AGS cell line [6]; 250 µM, control 2.48%",21.58%
same,early apoptotic cells (annexin V stained),"AGS cell line [6]; 250 µM, control 3.24%",16.18%
same,viability at 250 µM,"AGS cell line [6]; Homo sapiens, control 93.57%, read-out: viable cells (unstained)",60%
same,IC50,HeLa,355 µM
same,DNA damage index (DI),"AGS cell line [7]; 48 h, control 52",183
same,DNA damage index (DI),"AGS cell line [7]; 72 h, control 20",259
same,IC50,AGS,50.2 µM
"Cc1nc(-c2ccccc2)nc(Nc2ccc(F)cc2)c1C=O [Compound 4, 4-(4-fluoroanilino)-6-methyl-2-phenylpyrimidine-5-carbaldehyde]",melting point,,184 °C

# Source: PMC8071423, “A New Pyrimidine Schiff Base with Selective Activities against Enterococcus faecalis and Gastric Adenocarcinoma” (Molecules, 2021)
